Measurements: patent US11312719B2, “9-substituted amino triazolo quinazoline derivatives as adenosine receptor antagonists, pharmaceutical compositions and their use” (Merck Sharp & Dohme Corp., priority 2018, dated 2022)

What was measured:
[1] = biological target: human A2b adenosine receptor (Homo sapiens (Human), UniProt P29275); experiment: A2b radioligand filtration binding assay; details: membranes from HEK293 cells expressing human A2b receptor
Method in brief: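 Membranes from HEK293 cells expressing human A2b receptor preincubated with compound 15 to 30 min at room temperature, then tritiated proprietary A2b antagonist (diluted to 14 nM before addition) added in PBS pH 7.4 for 60 min at room temperature. Bound radioactivity by filtration and scintillation; non-specific binding with 20 μM NECA; IC50 by 4-parameter logistic fit.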

[2] = biological target: human A2a adenosine receptor (Homo sapiens (Human), UniProt P29274); experiment: A2a receptor affinity radioligand binding assay ([3H] SCH58261); details: for IC50: membranes from HEK293 or CHO cells expressing human A2a receptor
Chain of human A2a adenosine receptor (P29274 whole entry): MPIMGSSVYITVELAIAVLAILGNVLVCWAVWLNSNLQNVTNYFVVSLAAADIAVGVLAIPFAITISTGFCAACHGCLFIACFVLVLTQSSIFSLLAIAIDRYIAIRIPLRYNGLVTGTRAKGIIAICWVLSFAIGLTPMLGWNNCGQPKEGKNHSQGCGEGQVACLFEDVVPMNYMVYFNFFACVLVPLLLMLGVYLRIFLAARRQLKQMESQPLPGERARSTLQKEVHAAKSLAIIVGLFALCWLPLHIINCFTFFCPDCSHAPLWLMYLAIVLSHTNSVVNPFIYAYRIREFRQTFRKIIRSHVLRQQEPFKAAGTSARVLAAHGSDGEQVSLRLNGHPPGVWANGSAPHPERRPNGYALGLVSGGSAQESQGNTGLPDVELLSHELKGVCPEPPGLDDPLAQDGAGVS
Method in brief: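 Membranes from HEK293 or CHO cells expressing human A2a were preincubated 15–30 min at room temperature with compound, then incubated 60 min at room temperature with [3H]SCH58261 (diluted to 4 nM) in 50 mM Tris pH 7.4, 10 mM MgCl2, 0.005% Tween20. Bound radioactivity was collected by filtration; nonspecific binding defined with 1 μM ZM241385; IC50 from 4-parameter logistic fit.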

Chain of human A2b adenosine receptor (P29275 whole entry): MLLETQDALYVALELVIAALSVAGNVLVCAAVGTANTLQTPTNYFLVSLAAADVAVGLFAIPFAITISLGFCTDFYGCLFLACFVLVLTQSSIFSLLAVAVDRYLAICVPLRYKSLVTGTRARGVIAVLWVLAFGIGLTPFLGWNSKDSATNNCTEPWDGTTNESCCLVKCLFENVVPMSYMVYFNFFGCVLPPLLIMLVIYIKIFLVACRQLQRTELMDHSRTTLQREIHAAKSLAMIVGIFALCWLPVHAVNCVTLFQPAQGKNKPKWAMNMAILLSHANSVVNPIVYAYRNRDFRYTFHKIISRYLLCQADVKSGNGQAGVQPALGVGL

| Compound | IC50 [1] | IC50 [2] | A2A binding % Inh. @ 1000 nM ([2]; @ 1000 nM) |
| --- | --- | --- | --- |
| COc1cc(F)cc2c1nc(N)n1nc([C@@H]3CCCN(c4cn(CC(C)(C)O)nc4C)C3)nc21 [Example 30, (R)-1-(4-(3-(5-amino-9-fluoro-7-methoxy-[1,2,4]triazolo [1,5-c]quinazolin-2-yl)piperidin-l-yl)-3-methyl-1H-pyrazol-1-yl)-2-methylpropan-2-ol] | 97.9 nM | 0.4 nM | – |
| CCn1cc(N2CCC[C@@H](c3nc4c5cc(F)c(OC)cc5nc(N)n4n3)C2)c(CO)n1 [Example 20, (R)-(4-(3-(5-amino-9-fluoro-8-methoxy-[1,2,4]triazolo[1,5-c]quinazolin-2-yl)piperidin-1-yl)-ethyl-1H-pyrazol-3-yl)methanol] | 163 nM | 5.8 nM | – |
| COc1cc2nc(N)n3nc(C4CN(c5cn(CC(C)(C)O)nc5C)CCS4(=O)=O)nc3c2cc1F (single isomer, unassigned) [Example 142, (R or S)-2-(5-amino-9-fluoro-8-methoxy-[1,2,4]triazolo[1,5-c]quinazolin-2-yl)-4-(1-(2-hydroxy-2-methylpropyl)-3-methyl-1H-pyrazol-4-yl)thiomorpholine 1,1-dioxide] | 7940 nM | – | 32% Inh. @ |
| COc1cc(F)cc2c1nc(N)n1nc(C3CC(F)CN(c4cn(CC(C)(C)O)nc4C)C3)nc21 (single isomer, unassigned) [Example 77, 1-(4-((3S,5S or 3R,5R)-3-(5-amino-9-fluoro-7-methoxy-[1,2,4]triazolo[1,5-c]quinazolin-2-yl)-5-fluoropiperidin-1-yl)-3-methyl-1H-pyrazol-1-yl)-2-methylpropan-2-ol] | 108 nM | 0.4 nM | – |
| COc1cc(Cl)cc2c1nc(N)n1nc(C3CCCN(c4cnn(C)c4)C3)nc21 (single isomer, unassigned) [Example 104, (R or S)-9-chloro-7-methoxy-2-(1-(1-methyl-1H-pyrazol-4-yl)piperidin-3-yl)-[1,2,4]triazolo[1,5-c]quinazolin-5-amine] | 766 nM | 17.7 nM | – |
| COc1cc2nc(N)n3nc(C4CCC(C)N(c5cnn(CC(C)(C)O)c5C)C4)nc3c2cc1F [Example 52, 1-(4-((2R,5S, or 2S,5R)-5-(5-amino-9-fluoro-8-methoxy-[1,2,4]triazolo[1,5-c]quinazolin-2-yl)-2-methylpiperidin-1-yl)-5-methyl-1H-pyrazol-1-yl)-2-methylpropan-2-ol] | 3010 nM | 18.3 nM | – |
| COc1cc2nc(N)n3nc([C@@H]4CCCN(c5cnn(CS(C)(=O)=O)c5C)C4)nc3c2cc1F [Example 130, (R)-9-fluoro-8-methoxy-2-(1-(5-methyl-1-((methylsulfonyl)methyl)-1H-pyrazol-4-yl)piperidin-3-yl)-[1,2,4]triazolo[1,5-c]quinazolin-5-amine] | 78.7 nM | 1.2 nM | – |
| COc1cc2nc(N)n3nc([C@@H]4CCCN(c5cnn(C6CCCC6O)c5)C4)nc3c2cc1F (single isomer, unassigned) [Example 84, (1R or 1S,2R or 2S)-2-(4-((R)-3-(5-amino-9-fluoro-8-methoxy-[1,2,4]triazolo[1,5-c]quinazolin-2-yl)piperidin-1-yl)-1H-pyrazol-1-yl)cyclopentan-1-ol] | 117 nM | 2.3 nM | – |
| COc1cc2nc(N)n3nc([C@@H]4CCCN(c5cn(C)nn5)C4)nc3c2cc1F [Example 6, (R)-9-fluoro-8-methoxy-2-(1-(1-methyl-1H-1,2,3-triazol-4-yl)piperidin-3-yl)-[1,2,4]triazolo[1,5-c]quinazolin-5-amine] | 85.9 nM | 2 nM | – |
| COc1cc2nc(N)n3nc([C@@H]4CCCN(c5cnn(CCCC(C)O)c5)C4)nc3c2cc1F (single isomer, unassigned) [Example 95, (R or S)-5-(4-((R)-3-(5-amino-9-fluoro-8-methoxy-[1,2,4]triazolo[1,5-c]quinazolin-2-yl)piperidin-1-yl)-1H-pyrazol-1-yl)pentan-2-ol] | 5040 nM | 205 nM | – |
| COc1cc2nc(N)n3nc([C@@H]4CCCN(c5cnn(C6CCOCC6)c5C)C4)nc3c2cc1F [Example 16, (R)-9-fluoro-8-methoxy-2-(1-(5-methyl-1-(tetrahydro-2H-pyran-4-yl)-1H-pyrazol-4-yl)piperidin-3-yl)-[1,2,4]triazolo[1,5-c]quinazoliu-5-amine] | 426 nM | 0.8 nM | – |
| COc1cc2nc(N)n3nc([C@@H]4CCCN(c5cnc(OC(F)F)c(C)c5)C4)nc3c2cc1F [Example 24, (R)-2-(1-(6-(difluoromethoxy)-5-methylpyridin-3-yl)piperidin-3-yl)-9-fluoro-8-methoxy-[1,2,4]triazolo[1,5-c]quinazolin-5-amine] | 480 nM | 13.8 nM | – |
| COc1cc2nc(N)n3nc([C@@H]4CCCN(c5ncn(C(C)C(C)(C)O)n5)C4)nc3c2cc1F (single isomer, unassigned) [Example 65, (S or R)-3-(3-((R)-3-(5-amino-9-fluoro-8-methoxy-[1,2,4]triazolo[1,5-c]quinazolin-2-yl)piperidin-1-yl)-1H-1,2,4-triazolo-1-yl)-2-methylbutan-2-ol] | 228 nM | 1.2 nM | – |
| Cn1cc(N2CCCC(c3nc4c5cc(Cl)ccc5nc(N)n4n3)C2)cn1 (single isomer, unassigned) [Example 106, (R or S)-9-chloro-2-(1-(1-methyl-1H-pyrazol-4-yl)piperidin-3-yl)-[1,2,4]triazolo[1,5-c]quinazolin-5-amine] | 430 nM | 316 nM | – |

Compounds with a lower IC50 [1], results first:

| IC50 [1] | IC50 [2] | A2A binding % Inh. @ 1000 nM ([2]; @ 1000 nM) | Compound |
| --- | --- | --- | --- |
| 75 nM | 1.7 nM | – | COc1cc2nc(N)n3nc([C@@H]4CCCN(c5cnn(C(C)C(C)(C)O)c5)C4)nc3c2cc1F (single isomer, unassigned) [Example 12, (S or R)-3-(4-((R)-3-(5-amino-9-fluoro-8-methoxy-[1,2,4]triazolo [1,5-c]quinazolin-2-yl)piperidin-1-yl)-1H-pyrazol-1-yl)-2-methylbutan-2-ol] |
| 72.6 nM | 0.7 nM | – | COc1cc2nc(N)n3nc([C@@H]4CCCN(c5cnn(C(C)C(C)(C)O)c5)C4)nc3c2cc1F (single isomer, unassigned) [Example 13, (R or S)-3-(4-((R)-3-(5-amino-9-fluoro-8-methoxy-[1,2,4]triazolo[1,5-c]quinazolin-2-yl)piperidin-l-yl)-1H-pyrazol-1-yl)-2-methylbutan-2-ol] |
| 61.7 nM | 0.6 nM | – | COc1cc2nc(N)n3nc([C@@H]4CCCN(c5cc(C)c(=O)n(C(F)F)c5)C4)nc3c2cc1F [Example 25, (R)-5-(3-(5-amino-9-fluoro-8-methoxy-[1,2,4]triazolo[1,5-c]quinazolin-2-yl)piperidin-1-yl)-1-(difluoromethyl)-3-methylpyridin-2(1H)-one] |
| 42.8 nM | 1.2 nM | – | COc1cc2nc(N)n3nc(C4CCC(C)N(c5cnn(CC(C)(C)O)c5C)C4)nc3c2cc1F (single isomer, unassigned) [Example 41, 1-(4-((2S,5R or 2R,5S)-5-(5-amino-9-fluoro-8-methoxy-[1,2,4]triazolo[1,5-c]quinazolin-2-yl)-2-methylpiperidin-1-yl)-5-methyl-1H-pyrazol-1-yl)-2-methylpropan-2-ol] |
| 33.3 nM | 0.6 nM | – | COc1cc2nc(N)n3nc([C@@H]4CC[C@H](C)N(c5cnn(C6CCC(C)(O)CC6)c5)C4)nc3c2cc1F (single isomer, unassigned) [Example 97, rac-(1r,4r or 1r,4s)-4-(4-((2S,5R or 2R,5S)-5-(5-amino-9-fluoro-8-methoxy-[1,2,4]triazolo[1,5-c]quinazolin-2-yl)-2-methylpiperidin-1-yl)-1H-pyrazol-1-yl)-1-methylcyclohexan-1-ol] |
| 20.4 nM | 1.3 nM | – | COc1cc2nc(N)n3nc(C4CCC(C)N(c5cnn(C6CCOCC6)c5)C4)nc3c2cc1F (single isomer, unassigned) [Example 44, 9-fluoro-8-methoxy-2-((3R,6S or 3S,6R)-6-methyl-1-(1-(tetrahydro-2H-pyran-4-yl)-1H-pyrazol-4-yl)piperidin-3-yl)-[1,2,4]triazolo[1,5-c]quinazolin-5-amine] |
| 17.6 nM | 0.6 nM | – | COc1cc2nc(N)n3nc([C@@H]4CC[C@H](C)N(c5cnn(C(C)C(C)(C)O)c5)C4)nc3c2cc1F (single isomer, unassigned) [Example 48, (R or S)-3-(4-((2S,5R or 2R,5S)-5-(5-amino-9-fluoro-8-methoxy-[1,2,4]triazolo[1,5-c]quinazolin-2-yl)-2-methylpiperidin-1-yl)-1H-pyrazol-1-yl)-2-methylbutan-2-ol] |
| 7.8 nM | 0.7 nM | – | COc1cc2nc(N)n3nc([C@@H]4CC[C@H](C)N(c5cnn(CC(C)(C)O)c5)C4)nc3c2cc1F [Example 109, 1-(4-((2S,5R)-5-(5-amino-9-fluoro-8-methoxy-[1,2,4]triazolo[1,5-c]quinazolin-2-yl)-2-methylpiperidin-1-yl)-1H-pyrazol-1-yl)-2-methylpropan-2-ol] |
| 7.8 nM | 0.6 nM | – | COc1cc(F)cc2c1nc(N)n1nc(C3CCC(C)N(c4cnn(CC(C)(C)O)c4)C3)nc21 (single isomer, unassigned) [Example 120, 1-(4-((2R or 2S,5S or 5R)-5-(5-amino-9-fluoro-7-methoxy-[1,2,4]triazolo[1,5-c]quinazolin-2-yl)-2-methylpiperidin-1-yl)-1H-pyrazol-1-yl)-2-methylpropan-2-ol] |
